The values that follow come from patent US7517905B2, “Substituted azabicyclo hexane derivatives as muscarinic receptor antagonists” (Ranbaxy Laboratories Limited, priority 2003, dated 2009).

Experiment [1] has as its system isolated rat bladder. Put plainly: Functional experiments using isolated rat bladder (carbachol concentration response curve). The experiment is classed as cell-based. To be noted: isolated rat bladder strips, carbachol-induced contraction, antagonist added 20 min before second CRC; for Kb: read-out: Functional Assay pKB (converted). Here is the method:
Animals were euthanized by overdose of urethane and whole bladder was isolated and removed rapidly and placed in cold Tyrode buffer with the following composition (mMol/L) sodium chloride 137; KCl 2.7, CaCl2 1.8, MgCl2 0.1; NaHCO3 11.9, NaH2PO4 0.4; Glucose 5.55 and continuously gassed with 95% O2 and 5% CO2
The bladder was cut into longitudinal strips (3 mm wide and 5-6 mm long) and mounted in 10 ml organ baths at 30° C., with one end connected to the base of the tissue holder and the other end connected to a polygraph through a force displacement transducer. Each tissue was maintained at a constant basal tension of 2 g and allowed to equilibrate for 1 hour during which the PSS was changed every 15 min. At the end of equilibration period, the stabilization of the tissue contractile response was assessed with 1 u mol/L of carbachol consecutively for 2-3 times. Subsequently, a cumulative concentration response curve to carbachol (10^−9 mol/L to 3×10^−5 mol/L) was obtained. After several washes, once the baseline was achieved, cumulative concentration response curve was obtained in the presence of NCE (NCE added 20 min. prior to the second CRC).
The contractile results were expressed as % of control E max ED50 values were calculated by fitting a non-linear regression curve (Graph Pad Prism). PKB values were calculated by the formula pKB=−log [(molar concentration of antagonist/(dose ratio-1))] where,
dose ratio=ED50 in the presence of antagonist/ED50 in the absence of antagonist.

Experiment [2] concerns the target T1, M2 muscarinic receptor (Rattus norvegicus, UniProt P10980).
T1 construct: Submandibular glands and heart were isolated and placed in ice cold homogenizing buffer; from tissue; host or cells: rat heart membrane homogenate
T1 sequence (P10980 1-466): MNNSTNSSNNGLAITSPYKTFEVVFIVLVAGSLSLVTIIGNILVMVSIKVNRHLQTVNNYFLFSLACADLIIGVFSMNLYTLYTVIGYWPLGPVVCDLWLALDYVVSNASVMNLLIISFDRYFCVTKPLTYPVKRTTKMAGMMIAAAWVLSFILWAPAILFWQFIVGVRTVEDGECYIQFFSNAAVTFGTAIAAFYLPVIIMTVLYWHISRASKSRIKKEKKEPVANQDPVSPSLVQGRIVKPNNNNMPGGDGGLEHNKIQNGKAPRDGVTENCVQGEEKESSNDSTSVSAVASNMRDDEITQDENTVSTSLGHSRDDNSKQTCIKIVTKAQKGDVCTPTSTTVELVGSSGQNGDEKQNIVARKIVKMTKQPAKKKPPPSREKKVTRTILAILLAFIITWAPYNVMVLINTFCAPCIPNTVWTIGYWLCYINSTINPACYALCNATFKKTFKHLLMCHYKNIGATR
Description: Radioligand binding assay, [3H]-N-methyl scopolamine, rat heart membranes. The settings on record: [3H]NMS displacement, Ki by Cheng & Prusoff; for Ki: read-out: Receptor Binding Assay M2 pKi (converted). Here is the method: The affinity of test compounds for M2 and M3 muscarinic receptor subtypes was determined by [^3H]—N-methyl scopolamine binding studies using rat heart and submandibular gland, respectively as described by Moriya et al., (Life Sci, 1999, 64(25): 2351-2358).
(§1) Membrane preparation: Submandibular glands and heart were isolated and placed in ice cold homogenizing buffer (HEPES 20 mM, 10 mM EDTA, and pH 7.4) immediately after sacrifice. The tissues were homogenized in 10 volumes of homogenizing buffer and the homogenate was filtered through two layers of wet gauze and filtrate was centrifuged at 500 g for 10 min. The supernatant was subsequently centrifuged at 40.000 g for 20 min. The pallet thus obtained was resuspended in same volume of assay buffer (HEPES 20 mM, EDTA 5 mM, pH 7.4) and were stored at −70° C. until the time of assay.
Ligand binding assay: The compounds were dissolved and diluted in dimethylsulfoxide. The membrane homogenates (150-250 μg protein) were incubated in 250 ul of assay buffer HEPES 20 mM, pH 7.4) at 24-25° C. for 3 hour. Non-specific binding was determined in the presence of 1 μM atropine. The incubation was terminated by vacuum filtration over GF/B fiber filters (Wallac). The filters were then washed with ice-cold 50 mM Tris HCI buffer (pH 7.4). The filter mats were dried and bound radioactivity retained on filters was counted. The IC50 & Kd were estimated by using the non-linear curve-fitting program using G Pad Prism software. The value of inhibition constant Ki was calculated from competitive binding studies by using Cheng & Prusoff equation (Biochem Pharmacol, 1973.22: 3099-3108), Ki=IC50/(1+L/Kd), where L is the concentration of [^3H]NMS used in the particular experiment. pKi=−log Ki Functional Experiments using Isolated Rat Bladder: Methodology: […]

Experiment [3] addresses T2, M3 muscarinic receptor (Rattus norvegicus, UniProt P08483).
T2 construct: Submandibular glands and heart were isolated and placed in ice cold homogenizing buffer; from tissue; host or cells: rat submandibular gland membrane homogenate
Put plainly: Radioligand binding assay, [3H]-N-methyl scopolamine, rat submandibular gland membranes. To be noted: [3H]NMS displacement, Ki by Cheng & Prusoff; for Ki: read-out: Receptor Binding Assay M3 pKi (converted). Here is the method: as §1
Ligand binding assay: The compounds were dissolved and diluted in dimethylsulfoxide. The membrane homogenates (150-250 μg protein) were incubated in 250 ul of assay buffer HEPES 20 mM, pH 7.4) at 24-25° C. for 3 hour. Non-specific binding was determined in the presence of 1 μM atropine. The incubation was terminated by vacuum filtration over GF/B fiber filters (Wallac). The filters were then washed with ice-cold 50 mM Tris HCI buffer (pH 7.4). The filter mats were dried and bound radioactivity retained on filters was counted. The IC50 & Kd were estimated by using the non-linear curve-fitting program using G Pad Prism software.

T2 sequence (P08483 whole entry): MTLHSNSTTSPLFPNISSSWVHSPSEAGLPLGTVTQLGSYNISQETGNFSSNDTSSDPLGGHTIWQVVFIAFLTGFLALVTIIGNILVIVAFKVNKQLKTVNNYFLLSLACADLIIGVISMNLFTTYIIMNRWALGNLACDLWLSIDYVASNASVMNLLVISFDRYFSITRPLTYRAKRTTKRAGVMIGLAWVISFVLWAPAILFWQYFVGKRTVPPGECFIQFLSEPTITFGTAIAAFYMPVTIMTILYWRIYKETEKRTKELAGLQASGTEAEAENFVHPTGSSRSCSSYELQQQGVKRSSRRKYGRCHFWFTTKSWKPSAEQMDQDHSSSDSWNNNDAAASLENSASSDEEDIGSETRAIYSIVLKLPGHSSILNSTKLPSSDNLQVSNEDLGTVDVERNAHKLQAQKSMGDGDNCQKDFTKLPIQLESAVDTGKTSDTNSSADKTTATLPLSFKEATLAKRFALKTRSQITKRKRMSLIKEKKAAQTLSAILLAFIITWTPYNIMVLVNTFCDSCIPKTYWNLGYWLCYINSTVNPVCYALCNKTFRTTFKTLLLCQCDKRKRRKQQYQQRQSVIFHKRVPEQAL

Consider `Cc1ccc(O)c(C(CC(=O)OCC(=O)NC2C3CNCC32)c2ccccc2)c1` (centres unmarked) [Compound No. 8, 3-(2-hydroxy-5-methylphenyl)-3-phenylpropionic acid-(3-azabicyclo[3.1.0]hex-6-ylcarbamoyl)methyl ester], for which the “Functional Assay pKB” value in experiment [1] was “No blockade”. For the same compound, the Ki in experiment [2] and in experiment [3] was > 1000 nM each time.
On to `Cc1ccc(OCc2ccccc2)c(C(CC(=O)OCC(=O)NC2C3CN(Cc4ccccc4)CC32)c2ccccc2)c1` (centres unmarked) [Compound No. 2, 3-(2-benzyloxy-5-methylphenyl)-3-phenyl propanoic acid-(3-benzyl-3-azabicyclo[3.1.0]-hex-6-ylcarbamoyl)-methyl ester], for which, in experiment [1], the Kb was 6760 nM. Besides, the Ki in experiment [2] and in experiment [3] was > 1000 nM in each case.
`Cc1ccc(O)c(C(CC(=O)OCCCCNOCCC2C3CNCC23)c2ccccc2)c1` (centres unmarked) [Compound No. 6, 3-(2-hydroxy-5-methylphenyl)-3-phenylpropionic acid 4-[(3-azabicyclo[3.1.0]hex-6-yl)ethoxyamino]butyl ester]: the “Functional Assay pKB” value in experiment [1] turned out to be 5.84. Moreover, in experiment [2], the “Receptor Binding Assay M2 pKi” value is listed as <6. Besides, in experiment [3], the “Receptor Binding Assay M3 pKi” value is <6.
For `Cc1ccc(O)c(C(CC(=O)NC2C3CNCC32)c2ccccc2)c1` (centres unmarked) [Compound No. 3, N-(3-azabicyclo[3.1.0]hex-6-yl)-3-(2-hydroxy-5-methylphenyl)-3-phenyl-1-propanoic acid], the “Functional Assay pKB” value in experiment [1] is given as 5.95. Further, in experiment [2], the “Receptor Binding Assay M2 pKi” value was <6. Further, the “Receptor Binding Assay M3 pKi” value in experiment [3] is <6.
In the case of `CCOC(=O)N(CCCCOC(=O)CC(c1ccccc1)c1cc(C)ccc1OC)C1C2CN(Cc3ccccc3)CC21` (centres unmarked) [Compound No. 12, 3-(2-methoxy-5-methylphenyl)-3-phenylpropionic acid-4-[(3-benzyl-3-azabicyclo[3.1.0]hex-6-yl)-ethoxycarbonylamino]butyl ester], the “Functional Assay pKB” value in experiment [1] is 6.72. In addition, the “Receptor Binding Assay M2 pKi” value in experiment [2] was <6. The “Receptor Binding Assay M3 pKi” value in experiment [3] is <6.
Turning to `COc1ccc(C)cc1C(CC(=O)OCC(=O)NC1C2CN(Cc3ccccc3)CC21)c1ccccc1` (centres unmarked) [Compound No. 1, 3-(2-Methoxy-5-methylphenyl)-3-phenyl propanoic acid-(3-benzyl-3-azabicyclo[3.1.0]hexane-6-yl-carbamoyl)methyl ester], the Kb in experiment [1] was 9770 nM. Further, the Ki in experiment [2] and in experiment [3] was > 1000 nM each time.
With `Cc1ccc(O)c([C@H](CCN(C(C)C)C(C)C)c2ccccc2)c1` [Tolterodine, reference compound], the Kb in experiment [1] is 1.38 nM.
As for `COc1ccc(C)cc1C(CC(=O)NC1C2CNCC21)c1ccccc1` (centres unmarked) [Compound No. 4, N-(3-azabicyclo[3.1.0]hex-6-yl)-3-(2-methoxy-5-methylphenyl)-3-phenyl-1-propionamide], in experiment [1], the “Functional Assay pKB” value stood at 5.64. The “Receptor Binding Assay M2 pKi” value in experiment [2] is <6. The “Receptor Binding Assay M3 pKi” value in experiment [3] is <6.
`Cc1ccc(O)c(C(CC(=O)N[C@H]2[C@@H]3CN(Cc4ccccc4)C[C@@H]32)c2ccccc2)c1` (some centres unmarked) [Compound No. 11, N-(3-benzyl-3-azabicyclo[3.1.0]hex-6-yl)-3-(2-hydroxy-5-methylphenyl)-3-phenyl propionamide]: the Kb in experiment [1] was 6760 nM. In addition, the Ki in experiment [2] and in experiment [3] was > 1000 nM throughout.
As for `Cc1ccc(O)c(C(CC(=O)NCC(=O)NC2C3CN(Cc4ccccc4)CC32)c2ccccc2)c1` (centres unmarked) [Compound No. 9, N-[(3-benzyl-3-azabicyclo[3.1.0]hex-6-ylcarbamoyl)-methyl]-3-(2-hydroxy-5-methylphenyl)-3-phenyl-propionamide], the Kb in experiment [1] was 1910 nM. Besides, the Ki in experiment [2] and in experiment [3] was > 1000 nM each time.
Consider `Cc1ccc(O)c(C(CCNC2C3CN(Cc4ccccc4)CC32)c2ccccc2)c1` (single isomer, unassigned) [Compound No. 16, (R or S)—N-(3-benzy-1-3-azabicyclo[3.1.0]hex-6-yl]-[3-(2-hydroxy-5-methylphenyl)-3-phenylpropyl]amine], for which, in experiment [1], the “Functional Assay pKB” value is given as 7.25 ± 0.15.
Take `COc1ccc(C)cc1C(CC(=O)OCC(=O)NC1C2CNCC21)c1ccccc1` (centres unmarked) [Compound No. 7, 3-(2-methoxy-5-methylphenyl)-3-phenylpropionic acid-(3-azabicyclo[3.1.0]hex-6-ylcarbamoyl)methyl ester]: the Kb in experiment [1] was 2510 nM. Besides, the Ki in experiment [2] and in experiment [3] was > 1000 nM in each case.
Regarding “3-(2-methoxy-5-methylphenyl)-3-phenylpropanoic acid-4-[(3-azabicyclo[3.1.0]hex-6-yl]-ethoxy carbonylamino]butyl ester [Compound No. 5]”, the “Functional Assay pKB” value in experiment [1] is recorded as 5.15. In addition, the “Receptor Binding Assay M2 pKi” value in experiment [2] is given as <6. Further, the “Receptor Binding Assay M3 pKi” value in experiment [3] is given as <6.
As to `COc1ccc(C)cc1C(CC(=O)NCC(=O)N[C@H]1[C@@H]2CN(Cc3ccccc3)C[C@@H]21)c1ccccc1` (some centres unmarked) [Compound No. 10, N-[(3-benzyl-3-azabicyclo[3.1.0]hex-6-ylcarbamoyl]-methyl]-3(-2-methoxy-5-methylphenyl)-3-phenyl propionamide], the Kb in experiment [1] was 1950 nM. Also, the Ki in experiment [2] and in experiment [3] was > 1000 nM each time.
